Measurements published in patent US10464920B2, “Vicinal primary diamines associated with metal and/or free radical chelation motifs, and active against carbonyl and oxidative stress, and use thereof” (UNIVERSITE AMIENS PICARDIE JULES VERNE, priority 2015, dated 2019).

Columns and labels:
[1] = ORACFL test (Oxygen Radical Absorbance Capacity) using fluorescein/AAPH; assay type: physicochemical; details: compounds at 10 μM; for ORACFL: mean ± SEM of three independent experiments in triplicate
Protocol: The antioxidant properties of the compounds according to the invention were evaluated using a ORACFL test using fluorescein (J. Agric. Food Chem., 2004 52, 48-54; J. Agric. Food Chem., 2005, 53, 4290-4302). As such, peroxide radicals, generated in the presence of AAPH (2,2′-azobis(2-methylpropionamidine)dihydrochloride) at 37° C., react with this fluorescent sensor in order to give a non-fluorescent product. The protective effect of the test compounds can then be determined by following the decay curve of the fluorescence of the fluorescein over time and be measuring the area under the curve (AUC) of the sample in relation to that of a control corresponding to an absence of antioxidant.
The trolox (6-hydroxy-2,5,7,8-tetramethylchroman-2-carboxylic acid), a water-soluble analogue of vitamin E, is used as a standard for calculating the antioxidant capacity (ORACFL) of the compounds tested at 10 μM, expressed in […] of tested compound. This value is as such obtained using the straight-line calibration equation giving the area under the curve according to the various concentrations of trolox (Bioorg. Med. Chem., 2015, 23, 1135-1148) (FIG. 11).
A solution of fluorescein (FL) (12 nM; 150 μL) is introduced into a black 96-well plate (Dutscher, Brumath, France). The compounds to be tested (1-20 μM; 25 μL) or trolox (1-50 μM; 25 μL) dissolved in D-PBS are added into each well. After equilibration of the plate during an incubation at 37° C. for a minimum of 30 min, the radical reactions are initiated using a solution of AAPH prepared extemporaneously (30 mM; 25 μL). The fluorescence (λEx: 485 nm; λEm: 520 nm) is measured every 90 seconds for 60 cycles using a temperature-controlled Tecan Infinite® 200 PRO microplate reader (measurements taken in triplicates during three independent experiments).

[2] = system: murine endothelial brain cells (bEnd.3); assay: Cytotoxicity, cellular viability (CCK-8/WST-8) on bEnd.3; assay type: cell-based
Protocol: (§1) The cellular viability is evaluated by a colorimetric method based on the detection of the conversion of a salt of the tetrazolium (WST-8) by the metabolically active cells (CCK-8 kit, Sigma, Lyons, France) (Molecules, 2014, 19(8), 12048-12064; J. Pharmacol. Toxicol. Methods., 2007, 56(1), 58-62). Living cells have mitochondrial dehydrogenases that reduce the WST-8 (2-(2-methoxy-4-nitrophenyl)-3-(4-nitrophenyl)-5-(2,4-disulfophenyl)-2H-tetrazolium), monosodium salt) to formazan of an orange colour, which dissolves directly in the culture medium in the presence of 1-Methoxy PMS (1-methoxy-5-methylphenazinium methyl sulphate). After an incubation for 1 h at 37° C., the absorbance of the formazan is measured at 450 nm. The absorbance is directly proportional to the number of living cells.
(§2) Briefly, the cells are inoculated in 96-well plates at a rate of 5.10^3 cells per well in 100 μL of the suitable medium until subconfluence. The cells are then washed with D-PBS, then treated with various concentrations (10 μM, 100 μM) of the products to be tested in triplicates for 24 and 48 h. A positive control is carried out with 10% of DMSO. The CCK-8 (10 μL) solution is then added to each well for an incubation for 1 h at 37° C. The measurement of the absorbance is taken at 450 nm using a Perkin Elmer 2103 Envision® microplate reader.
(§3) The viability of the cells is expressed as a % of the control (untreated cells) by the mean±standard deviation of triplicates forming a representative experiment or of three independent experiments conducted in triplicate.

[3] = system: rat pheochromocytoma cells, treated as neuronal cells (PC12); assay: Cytotoxicity, cellular viability (CCK-8/WST-8) on PC12; assay type: cell-based
Protocol: as §1, §2, §3

[4] = system: human fibroblasts (MRC-5); assay: Cytotoxicity, cellular viability (CCK-8/WST-8) on MRC-5; assay type: cell-based
Protocol: as §1, §2, §3

[5] = system: low-density lipoproteins (LDLs); assay: Antiradical properties: inhibition of lipid peroxidation in AAPH-induced oxidation of LDLs; assay type: biochemical; details: high concentration (100 μM)
Protocol: The antiradical properties of the various compounds are determined by inhibition of the lipid peroxidation in the in vitro model of the oxidation of the low-density lipoproteins (LDLs) (Free Radic. Biol. Med., 1992, 13, 341-390). The lipid peroxidation is initiated by the attack by free radicals of a double bond of a polyunsaturated fatty acid present in the LDLs. […] Once initiated, the oxidation of the LDLs is a chain reaction of lipid peroxidation generated by the free radicals. The oxidation in vitro of the LDLs is induced at 37° C. by the adding of the water-soluble compound 2,2′-Azobis(2-methylpropionamidine)dihydrochloride (AAPH), which generates free radicals during the spontaneous thermal breakdown thereof
Briefly, the oxidation, carried out in a 96-well plate, is induced at 37° C. by adding 20 μL of a solution of AAPH at 2 mM in D-PBS at 160 μL of LDL (100 μg/mL) in the presence or absence of 20 μL of the various solutions of the compounds to be tested dissolved in D-PBS (0.1 to 100 μM in final concentrations). The LDLs alone without adding AAPH are used as a negative control. Each oxidation is carried out in double. During the oxidation, the formation of the conjugated dienes is followed by the measurement of the optical density at 234 nm every 10 minutes for 8 h at 37° C. using a temperature-controlled TECAN spectrophotometer. The vitamin E (α-tocopherol) which is a powerful antioxidant recognised in this in vitro model is used as a reference molecule (J. Nutr. Biochem., 2012, 23, 845-51).

[6] = Formation of adducts with MGO, kinetic study by HPLC; assay type: physicochemical; details: compound 10 mM, MGO 20 mM, 37° C., after 15 min of incubation
Protocol: The compounds to be tested are incubated at 37° C. in the presence of MGO or of MDA. A kinetic study aiming to report on the formation of adducts with the MGO or MDA is then carried out via HPLC analysis.
The compounds to be tested (30 μmol) are dissolved in PBS (1.5 mL). An aqueous solution (qsp 1.25 mL) of MGO at 40% in water (250 μmol) is then prepared and in parallel, MDA bis-(diOEt)-acetal (250 μmol) is set to react with a solution of HCl 1N (2 eq) in water (qsp 1.25 mL) for 1 h at room temperature. An aqueous solution of NaOH 0.05N is also required to neutralise the reaction medium (5 mL).
The solution of the compound to be tested (625 μL—final concentration in the medium=10 mM) is then set to react with the solution of MGO or of MDA prepared extemporaneously (125 μL—final concentration in the medium=20 mM) in the presence of NaOH 0.05 N (0.5 mL).
The various mixtures are then incubated in the oven at 37° C. for 24 h.
A sampling of each mixture (100 μL) is taken at regular intervals of time (0.25; 0.5; 1; 5 and 24 h) and stored at −20° C. in order to stop the reaction. After dilution in a MeCN/H2O 98:2 mixture at room temperature, the HPLC analysis is carried out on a Shimadzu LCMS-2020 apparatus (UV chromatogram at 190 nm and mass spectrum in positive electrospray ionisation mode (ESI+)) after separation on the Waters Acquity column using a gradient of solvents H2O+HCOOH 0.1%/MeCN+HCOOH 0.1% (98/2 for 2 min, then 55/45 for 2 min and 45/55 for 3 min) with a flow rate of 0.3 mL/min at 40° C. and an injection of volume of 1 (“detection mode: scan, interface voltage: tuning file, DL voltage: 100 V, Q-array DC: 40 V, Q-array RF: 40 V”). A blank is first of all carried out using a solution containing the reaction medium without scavenger. Then, a free scavenger solution at 10 mM is used as a negative control and the carnosine as a reference of the literature. The proportion of adducts formed with the MGO or MDA (generally, tR=4.1 to 6.8 min) is then measured in relation to the quantity of remaining free scavenger (generally, tR=0.8 to 4.6 min) after measurement of the area under the curve of the corresponding peaks on the UV spectrum (measurements taken for a representative sample).

[7] = MRC-5, 10 μM, 24 h of treatment
[8] = MRC-5, 10 μM, 48 h of treatment
[9] = MRC-5, 100 μM, 24 h of treatment
[10] = MRC-5, 100 μM, 48 h of treatment

NCC(N)CCC(=O)N1CCN(C(=O)c2cc(O)c(O)c(O)c2)CC1 (stereo not shown) [Compound 30a, 4,5-diamino-1-(4-(3,4,5-trihydroxybenzoyl)piperazin-1-yl)pentan-1-one]
ORACFL [1]: 0.89 ± 0.10 μmol TE/μmol
viability of the cells as a percentage of the untreated cells ([2]; mouse, 24 h, 10 μM): 117%
viability of the cells as a percentage of the untreated cells ([2]; mouse, 24 h, 100 μM): 96%
viability of the cells as a percentage of the untreated cells ([2]; mouse, 48 h, 10 μM): 95%
viability of the cells as a percentage of the untreated cells ([2]; mouse, 48 h, 100 μM): 108%
viability of the cells as a percentage of the untreated cells ([3]; rat, 24 h, 10 μM): 116%
viability of the cells as a percentage of the untreated cells ([3]; rat, 24 h, 100 μM): 140%
viability of the cells as a percentage of the untreated cells ([3]; rat, 48 h, 10 μM): 96%
viability of the cells as a percentage of the untreated cells ([3]; rat, 48 h, 100 μM): 113%
viability of the cells as a percentage of the untreated cells [4, 7]: 115%
viability of the cells as a percentage of the untreated cells [4, 8]: 101%
viability of the cells as a percentage of the untreated cells [4, 9]: 112%
viability of the cells as a percentage of the untreated cells [4, 10]: 103%

Cc1c(C)c2c(c(C)c1O)CCC(C)(C(=O)O)O2 (stereo not shown) [Trolox, 6-hydroxy-2,5,7,8-tetramethylchroman-2-carboxylic acid, reference compound]
ORACFL [1]: 1 μmol TE/μmol

Cl.Cl.NCC(N)C(=O)N1CCNCC1 (stereo not shown) [Dap-Pip, reference compound]
antioxidant capacity (ORACFL), in words [1]: absence of activity
ORACFL [1]: 0 μmol TE/μmol
anti-radical effect [5]: does not show any anti-radical effect
viability of the cells as a percentage of the untreated cells ([2]; bEnd.3, 10 μM, 24 h of treatment): 123%
viability of the cells as a percentage of the untreated cells ([2]; bEnd.3, 10 μM, 48 h of treatment): 131%
viability of the cells as a percentage of the untreated cells ([2]; bEnd.3, 100 μM, 24 h of treatment): 103%
viability of the cells as a percentage of the untreated cells ([2]; bEnd.3, 100 μM, 48 h of treatment): 142%
viability of the cells as a percentage of the untreated cells ([3]; PC12, 10 μM, 24 h of treatment): 114%
viability of the cells as a percentage of the untreated cells ([3]; PC12, 10 μM, 48 h of treatment): 110%
viability of the cells as a percentage of the untreated cells ([3]; PC12, 100 μM, 24 h of treatment): 120%
viability of the cells as a percentage of the untreated cells ([3]; PC12, 100 μM, 48 h of treatment): 102%
viability of the cells as a percentage of the untreated cells [4, 7]: 125%
viability of the cells as a percentage of the untreated cells [4, 8]: 113%
viability of the cells as a percentage of the untreated cells [4, 9]: 128%
viability of the cells as a percentage of the untreated cells [4, 10]: 111%

NCCC(=O)N[C@@H](Cc1cnc[nH]1)C(=O)O [Carnosine, carnosine, reference compound]
antioxidant capacity (ORACFL), in words [1]: very low activity
ORACFL [1]: 0.08 ± 0.05 μmol TE/μmol

NCC(N)CC(=O)N1CCN(C(=O)CCn2cccc(O)c2=O)CC1 (stereo not shown) [Compound 37d, 1-(3-(4-(3,4-diaminobutanoyl)piperazin-1-yl)-3-oxopropyl)-3-hydroxypyridin-2(1H)-one]
ORACFL [1]: 1.21 ± 0.07 μmol TE/μmol

NCC(N)CCC(=O)N1CCN(C(=O)CCn2cccc(O)c2=O)CC1 (stereo not shown) [Compound 37f, 1-(3-(4-(4,5-diaminopentanoyl)piperazin-1-yl)-3-oxopropyl)-3-hydroxypyridin-2(1H)-one]
disappearance of the free scavenger to the benefit of adducts with the MGO [6]: almost total disappearance of the free scavenger
ORACFL [1]: 1.96 ± 0.24 μmol TE/μmol
